Assay results: publication PMC6736837, “^18F-labelled triazolyl-linked argininamides targeting the neuropeptide Y Y1R for PET imaging of mammary carcinoma” (Scientific Reports, 2019)
Entries after “also recorded” stand apart in the source; their conditions may differ.

Tests used:
MCF-7-Y1 tumours = test: Small animal PET in MCF-7-Y1 xenografted nude mice; format: in vivo, mouse; conditions: 45–60 min p.i., blocking by co-injection of BIBP3226 1 mg/kg
Experimental: For the NPY Y1R xenograft model, female NMRI nude mice (HsdCpb:NMRI-Foxn1^nu) were purchased from Envigo (Horst, The Netherlands) at the age of three weeks. Mice were kept in groups of four to five animals in individually ventilated cages in a twelve hours dark/light cycle with unlimited access to water and standard chow. At the age of nine to ten weeks one 17β-estradiol pellet per animal (0.72 mg per pellet, 3 mm diameter) with a 60-day release time (Innovative Research of America, Sarasota, FL, USA) was subcutaneously implanted on the back under isoflurane anesthesia. After three days, approximately 10^6 MCF-7-Y1 tumour cells (in 50 µL PBS) were mixed with Matrigel (50 µL, BD Biosciences, Heidelberg) and then injected subcutaneously at the back. Tumour diameters and weight of the animals were recorded five times a week. Imaging studies were performed four weeks after inoculation of the cells.
Small animal PET scans were performed on an Inveon™ microPET scanner (Siemens Healthcare, Erlangen) under isoflurane anesthesia (3%). Tumour bearing mice (26–35 g, n = 2–3 for each radioligand) were intravenously injected into the tail vein with the respective radiotracer (1.5–4.2 MBq in about 100 µL of saline) under isoflurane anesthesia (3–4%). Static images were acquired for 15 min starting 45 min p.i. of the radiotracer. For displacement studies, the same mice were co-injected with the radiotracer ([^18F]12 and [^18F]13 only) and BIBP3226 (1 mg/kg). Images were corrected for decay and attenuation and MAP (iterative maximum a posteriori) images were reconstructed using the built-in software of the PET scanner. Evaluation of the MAP images was conducted using the software PMOD (version 3.6, PMOD Technologies LLC, Zürich). Regions of interests (ROIs) were drawn and radioactivity concentration within these regions was obtained from the mean values and calculated as percentage of the total injected dose per gram tissue (% ID/g).

[1] = Binding to human plasma proteins by gel filtration; format: in vitro ADME; conditions: 37 °C, read-out: Free fraction in plasma
Experimental: The binding of ^18F-labelled compounds to plasma proteins was determined using gel filtration columns(illustra™ MicroSpin™ G-50 Columns, GE Healthcare Life Sciences, Freiburg). An aliquot of the radiotracer (approx. 100 kBq) was added to 200 µL of saline, and 100 µL of human plasma, respectively. Both samples were incubated at 37 °C for 10 min. MicroSpin™ columns were prepared according to the user instruction. Then 25 µL of the incubated radiotracer were given onto the columns and the devices were centrifuged (2000 × g, 2 min). Eluate and solid phase were analysed in the γ-counter (Wallac Wizard). The percentage of unbound radioligand was calculated as %free=cpmsolidphase/cpmsolidphase+cpmeluate . The sample in saline was used as control.

fraction unbound at 10 min [1] | SMILES | tumour visualisation / specific tumour accumulation in PET (MCF-7-Y1 tumours)
0.37 | N/C(=N/C(=O)NCc1cn(CCOCCOCCOCC[18F])nn1)NCCC[C@@H](NC(=O)C(c1ccccc1)c1ccccc1)C(=O)NCc1ccc(O)cc1 [[^18F]13, (2R)‐5‐{[(1Z)‐Amino[({[1‐(2‐{2‐[2‐(2‐[^18F]fluoroethoxy)ethoxy]ethoxy}ethyl)‐1H‐1,2,3‐triazol‐4‐yl]methyl}carbamoyl)imino]methyl]amino}‐2‐(2,2‐diphenylacetamido)‐N‐[(4‐hydroxyphenyl)-methyl]pentanamide] | displaceable and thus specific Y1R-mediated tumour acculuation in vivo; also recorded: enhanced and specific tumour uptake
0.42 | N/C(=N/C(=O)NCc1cn([C@@H]2OC(C[18F])[C@@H](O)C(O)C2O)nn1)NCCC[C@@H](NC(=O)C(c1ccccc1)c1ccccc1)C(=O)NCc1ccc(O)cc1 (stereo partly drawn) [[^18F]11, (2R)‐5‐{[(1Z)‐Amino({[({1‐[(2R,5S)‐6‐([^18F]fluoromethyl)‐3,4,5‐trihydroxyoxan‐2‐yl]‐1H‐1,2,3‐triazol‐4‐yl}methyl)carbamoyl]imino})methyl]amino}‐2‐(2,2‐diphenylacetamido)‐N‐[(4‐hydroxyphenyl)-methyl]pentanamide] | visualision of the tumour with the fluoroglycosylated radiotracer [^18F]11 failed
